# Measured values published in patent US20080305559A1, “Non-Competitive Immunoassays to Detect Small Molecules” (priority 2005, published 2008).
# Values joined by “and” are separate entries in the source; they are usually repeats but may differ in a detail not shown here. Equal values may be shown once. No end group written: not given here.
# Columns and labels:
# [1] = tested on: anti-PBA polyclonal antibodies; assay: Cross-reactivity of the noncompetitive phage ELISA for PBA; format: binding, rabbit; conditions: for CR (%): % cross-reactivity=100×[SC50(PBA)/SC50(cross-reacting compound)]; for IC50: noncompetitive phage ELISA for PBA
# Method: The specificity of the noncompetitive assay set up with the phage borne peptide was characterized by determining its cross-reactivity with structurally related pesticides. PBA concentrations in the 0-50 ng/ml range were used in the noncompetitive ELISAs. Data were normalized, and the molar compound concentration corresponding to the midpoint of the curve, (which corresponds to the concentration of analyte producing 50% saturation of the signal (SC50), was used to express the cross-reactivity of the assay according to the equation:
# % cross−reactivity=100×[SC50(PBA)/SC50(cross−reacting compound)]
# [2] = tested on: atrazine-MoAb K4E7 immunocomplex; assay: Noncompetitive phage assay (PHAIA) for atrazine; format: binding; conditions: atrazine as analyte; MoAb K4E7 immobilized; phage borne peptides as tracers
# Method: In this case, we used the MoAb K4E7 specific for atrazine. The conventional chemical hapten assay developed with this MoAb (see, e.g., Giersch, J Ag. Food Chem. 41: 1006-1011 (1993)) allows one to reach an IC50 of 0.5 ng/ml. We used the atrazine-MoAb K4E7 immunocomplex to select phage borne peptides that could be used to develop a noncompetitive assay. The protocols used for panning and assay set up were identical to those used for the molinate-MoAb 14D7 system described in Example 1 above. […] A short consensus sequence was identified: WFD. The consensus sequence can occur at position two or five of the random sequence. […]
# Fifty μl per well of serial dilutions of molinate standard in PBST were dispensed into microtiter plates coated with MoAb 14D7, followed by the addition of 50 μl/well of the adequate dilution of the stabilized phage suspension. […] Absorbance values were fitted to a four-parameter logistic equation using the Genesis Lite 3.03 (Life Sciences (UK) Ltd.) package software. The lower detection limit (DL) of the assays was estimated as the analyte concentration corresponding to the absorbance equal to that of the zero standard plus three times its standard deviation).
# [3] = tested on: MoAb K4E7; conditions: atrazine, Giersch 1993; cited from earlier work
# [4] = tested on: MoAb K4E7; conditions: atrazine; Cardozo et al. 2005; cited from earlier work
# [5] = tested on: MoAb 14D7; conditions: molinate; Cardozo et al. 2005; cited from earlier work
# [6] = tested on: MoAb 14D7; conditions: molinate, Rufo et al. 2004; cited from earlier work
# [7] = tested on: molinate-MoAb 14D7 immunocomplex; assay: Noncompetitive phage ELISA (PHAIA) for molinate; format: binding; conditions: molinate as analyte, plates coated with MoAb 14D7, named phage borne peptide as tracer
# From the text: In a similar way that the IC50 (the analyte concentration producing 50% inhibition) is used to denote the sensitivity of competitive methods, we refer to the concentration of analyte producing 50% saturation (SC50) in noncompetitive assays as a practical parameter to compare the sensitivity of our assays. […] For each of these clones, the assay conditions were optimized as described previously. […] These differences highlight the importance of the residues that flank the WDT consensus sequence of the selected peptides. This can be seen in the case of the S1 and S4 peptide sequences, which only differ in two amino acids and yield assays with SC50 of 5 and 32 ng/ml, respectively.
# (§1) Nunc-Immuno™ Maxi-Sorp™ plates were coated with MoAb 14D7 or molinate-MoAb 14D7 immunocomplex as described previously. The wells were blocked with 5% skimmed milk PBS, and washed three times with PBST. One hundred μl/well of an overnight culture of individual amplified phage clones were dispensed into the wells. The microtiter plates where then incubated for 1 h at room temperature with gentle rocking. After washing three times with PBST, 100 μL of a 1/5000 dilution of horse radish peroxidase (HRP) labeled anti-M13 monoclonal antibody (Pharmacia, Uppsala) in PBST were added to each well. One hour later, the plates were thoroughly washed and 100 μl of peroxidase substrate (25 ml of 0.1 M citrate acetate buffer pH 5.5, 0.4 ml of 6 mg/ml DMSO solution of 3,3′,5,5′-tetramethylbenzidine, and 0.1 ml of 1% H2O2) were dispensed into each well. The enzymatic reaction was stopped after 15-20 min by the addition of 50 μl of 2 M H2SO4, and the absorbance at 450 nm (corrected at 600 nm) was read in a microtiter plate reader (Multiskan MS, Labsystems). The supernatants showing high readings in wells coated with the immunocomplex and low response in antibody coated wells were prepared as stabilized phage suspensions (see below), and use for further analysis. For checkerboard titration, 100 μl of variable concentrations of the antibody (0.3-2 μg/ml) were used for coating.
# Fifty μl per well of serial dilutions of molinate standard in PBST were dispensed into microtiter plates coated with MoAb 14D7, followed by the addition of 50 μl/well of the adequate dilution of the stabilized phage suspension. The antibody concentration used for coating and the proper dilution of the phage suspension had been previously optimized by checkerboard experiments. After an hour incubation period at room temperature, the plates were washed and developed as previously described. Absorbance values were fitted to a four-parameter logistic equation using the Genesis Lite 3.03 (Life Sciences (UK) Ltd.) package software. The lower detection limit (DL) of the assays was estimated as the analyte concentration corresponding to the absorbance equal to that of the zero standard plus three times its standard deviation).
# [8] = tested on: MoAb 14D7; assay: Phage ELISA checkerboard titration: reactivity with the IC and the uncombined antibody; format: binding; conditions: wide range of MoAb 14D7 coating densities, absence of molinate
# Method: as §1
Compound,CR (%) [1],IC50 [1],SC50 (concentration of analyte producing 50% saturation) [7],further results
O=C(O)c1ccc(O)cc1 [4-Hydroxybenzoic acid],0%,>100 ng/mL,,
CC1(C)C(C=C(Cl)Cl)C1C(=O)OC(C#N)c1cccc(Oc2ccccc2)c1 (stereo not drawn) [Cypermethrin],0%,>100 ng/mL,,
CC(C)C(C(=O)OC(C#N)c1cccc(Oc2ccccc2)c1)c1ccc(Cl)cc1 (stereo not drawn) [Esfenvalerate],0%,>100 ng/mL,,
O=C(O)CNC(=O)c1cccc(Oc2ccccc2)c1 [PBA-glycine conjugate],0%,>100 ng/mL,,
CC1(C)C(C=C(Cl)Cl)C1C(=O)OCc1cccc(Oc2ccccc2)c1 (stereo not drawn) [Permethrin],0%,>100 ng/mL,,
CCNc1nc(Cl)nc(NC(C)C)n1 [atrazine],,,,SC50 [2]: 0.2 to 0.8 ng/mL; IC50 of conventional chemical hapten assay [3]: 0.5 ng/mL; IC50 of competitive assay set up with the same antibody [4]: 0.64 ± 0.06 ng/mL
CCSC(=O)N1CCCCCC1 [molinate],,,,IC50 of phage competitive assay [5]: 45 ng/mL; IC50 of competitive assay set up with heterologous chemical haptens [6]: 69 ng/ml and 69.2±1.4 ng/ml
"C N I W D T S G W C (CNIWDTSGWC; phage-displayed) [mH, phage clone from the mutagenesis library]",,,27 ± 2.0 ng/mL,
"C N L W D T T G W C (CNLWDTTGWC; phage-displayed) [mF, phage clone from the mutagenesis library]",,,11 ± 0.5 ng/mL,
C N R W D T T G W C (CNRWDTTGWC; not fully specified (bridges); cysteine pairing not given here; also: phage-displayed on pVIII) [8M2],,,6.1 ± 0.3 ng/mL and 6.0 ± 0.3 ng/mL,
"C S I W D T T G W C (CSIWDTTGWC; phage-displayed) [mI12, phage clone from the mutagenesis library]",,,8.1 ± 0.6 ng/mL,
"C S L W D T T G W C (CSLWDTTGWC; phage-displayed) [mA, phage clone from the mutagenesis library]",,,8.5 ± 0.5 ng/mL,residual reactivity with the free (uncombined) antibody [8]: little reactivity with the free antibody
"C S T W D T T G W C (CSTWDTTGWC; also: phage-displayed on pVIII, cyclic, bridge not given here) [1M]",,,5.0 ± 0.4 ng/mL,SC50 (concentration of analyte producing 50% saturation) ([7]; listed as S1): 5 ng/mL
C S V W D T S G W C (CSVWDTSGWC; not fully specified (bridges); cysteine pairing not given here; also: phage-displayed) [10M2],,,32 ± 5 ng/mL and 32 ± 4.9 ng/mL,SC50 (concentration of analyte producing 50% saturation) ([7]; listed as S4): 32 ng/mL
"C S Y W D T T G W C (CSYWDTTGWC; phage-displayed) [mG, phage clone from the mutagenesis library]",,,16 ± 0.7 ng/mL,
CTPVRWFDMC (phage-displayed) [13A],,,,SC50 [2]: 0.0511 ± 0.002 ng/mL
